Assay results as given in paper PMC8154566, “Scaffold-Hopping Strategy on a Series of Proteasome Inhibitors Led to a Preclinical Candidate for the Treatment of Visceral Leishmaniasis” (Journal of Medicinal Chemistry, 2021).
Converted amounts (≈) assume the structure as drawn. Where two headings read alike, the source gives them in different places.

How the values were obtained:
[1] = tested on: L. donovani amastigotes; test: INMAC assay: intramacrophage L. donovani in differentiated THP-1 cells; type: cell-based, Leishmania donovani; conditions: for IC50 / EC50: Leishmania donovani; for IC50: THP-1, read-out: LdInMac pIC50 (converted)
Protocol: (§1) Intramacrophage L. donovani Assay. This assay was conducted as previously described, except for […]

[2] = Mouse liver microsomal intrinsic clearance; type: in vitro ADME; conditions: for Mouse CLi: mouse liver microsomes; for Cli (mouse, ml/min/g): supplementary csv
Protocol: (§2) Intramacrophage L. donovani Assay. This assay was conducted as previously described, except for compound exposure time, which was 96 h instead of 72 h.4
(§3) Intrinsic Clearance. This assay was conducted as previously described.5 Aqueous Solubility. This assay was conducted as previously described.6
(§4) FaSSIF Solublity. This assay was conducted as previously described.5,7
(§5) In vivo Mouse Efficacy Studies. In vivo studies were carried out as previously described, with minor modifications.7 Briefly: Control drug used was Miltefosine (30 mg/kg orally, twice daily for 5 days), vehicle used was 10% (v/v) dimethyl sulfoxide (DMSO), 40% polyethylene glycol 400, and 50% deionized water (10 Ml/kg orally, twice daily for 5 days) and mice were treated with test compound intraperitoneally (50 mg/kg twice daily for 5 days). 5
(§6) All regulated procedures on living animals were carried out under the authority of a project license issued by the Home Office under the Animals (Scientific Procedures) Act 1986, as amended in 2012 (and in compliance with EU Directive EU/2010/63). Infected animals had access to food and water ad libitum and were housed under a 12 hour light/dark photoperiod. Animals used in these experiments were female NMRI and Balb/c mice (Harlan, UK).
(§7) Test compound DDD01008714 was dosed orally (P.O.) at 10 mg free base/kg (dose volume 10 mL/kg; dose vehicle: 10% (vol/vol) dimethyl sulfoxide (DMSO), 40% polyethylene glycol 400 (PEG400) and 50% deionized water) to female NMRI mice (n = 3) or intravenously (I.V.) at 3 mg free base/kg (dose volume 5 mL/kg; dose vehicle: 10% (vol/vol) dimethyl sulfoxide (DMSO) and 90% Saline) to female Balb/c mice (n = 3). Blood samples (10 μL) where taken from the tail vein of […]

[3] = tested on: THP-1 cells; test: THP-1 host cell read-out of the INMAC assay; type: cell-based; conditions: for EC50 / IC50: Homo sapiens
Protocol: as §1

[4] = Kinetic aqueous solubility by CLND; type: physicochemical
Protocol: We had successfully used these criteria in the hit to lead stage to identify compounds for in vivo proof-of-concept studies in another program, which subsequently led to the identification of preclinical candidate DDD853651/GSK3186899 active against CRK12.[7] […] A pharmacokinetic (PK) study was thus performed, dosed at 10 mg/kg po and 3 mg/kg iv. […] With the limited knowledge of the PK/PD drivers for the treatment of VL, we considered this to be a suitable profile for the progression of 4 into a previously reported mouse efficacy model of VL,[6],[7],[17],[18] where it was dosed twice daily at 50 mg/kg ip in order to further maximize exposure and give the best chance of achieving proof-of-concept.
as §2, §3, §4, §5, §6, §7

[5] = FaSSIF (fasted state simulated intestinal fluid) solubility; type: physicochemical; conditions: for solubility at 4 h: pH 6.5, Table 6
Protocol: as §2, §3, §4, §5, §6, §7

[6] = THP-1, supplementary csv, read-out: THP1 pIC50 (converted)
[7] = THP-1, Table 5, at least three replicates, SD ≤0.4, read-out: INMAC pEC50 (converted)
[8] = Table 5, at least three replicates, SD ≤0.4
[9] = THP-1, Table 5, read-out: THP-1 pEC50 (converted)
[10] = Table 5, kinetic, CLND, read-out: Aq. solubility
[11] = THP-1, Table 6, at least three replicates, SD ≤0.4, read-out: INMAC pEC50 (converted)
[12] = THP-1, Table 6, read-out: THP-1 pEC50 (converted)

O=C(Nc1cccc(-c2nc3ccccc3o2)c1)c1ccco1 [Compound 14]
IC50 [1]: > 50.1 µM | EC50 ([1]; THP-1, Table 3, at least three replicates, SD ≤0.4, read-out: INMAC (pEC50) (converted)): > 50.1 µM | INMAC pEC50 ([1]; Table 3, at least three replicates, SD ≤0.4): no activity | Mouse CLi ([2]; Table 3): 50 mL/min/g | Cli (mouse, ml/min/g) [2]: 50 mL/min/g | EC50 ([3]; THP-1, Table 3, read-out: THP-1 (pEC50) (converted)): > 50.1 µM | IC50 [3, 6]: > 50.1 µM

O=C(Nc1cccc(-c2cc3ncc(-c4ccccc4)cn3n2)c1)N1CCCC1 [Compound 16, N-(3-(6-Phenylpyrazolo[1,5-a]pyrimidin-2-yl)phenyl)pyrrolidine-1-carboxamide]
IC50 [1]: > 50.1 µM | EC50 [1, 7]: > 50.1 µM | INMAC pEC50 [1, 8]: inactive | Mouse CLi ([2]; Table 5): 3.6 mL/min/g | Cli (mouse, ml/min/g) [2]: 3.6 mL/min/g | EC50 [3, 9]: > 50.1 µM | IC50 [3, 6]: > 50.1 µM

O=C(Nc1cccc(-c2cc3cc(-c4ccccc4)cnc3[nH]2)c1)N1CCCC1 [Compound 17, N-(3-(5-Phenyl-1H-pyrrolo[2,3-b]pyridin-2-yl)phenyl)pyrrolidine-1-carboxamide]
EC50 ([1]; THP-1, read-out: INMAC pEC50 (converted)): > 50.1 µM | IC50 [1]: > 50.1 µM | INMAC pEC50 [1, 8]: inactive | solubility [4, 10]: 3 µM (≈ 1.15 µg/mL) | Mouse CLi ([2]; Table 5): 1.7 mL/min/g | Cli (mouse, ml/min/g) [2]: 1.7 mL/min/g | EC50 ([3]; THP-1, read-out: THP-1 pEC50 (converted)): > 50.1 µM | IC50 [3, 6]: > 50.1 µM

O=C(Nc1ccc(F)c(-c2cc3nc(N4CCOCC4)cnc3[nH]2)c1)N1CCCC1 [Compound 18, N-(4-Fluoro-3-(2-morpholino-5H-pyrrolo[2,3-b]pyrazin-6-yl)phenyl)pyrrolidine-1-carboxamide]
IC50 [1]: > 50.1 µM | EC50 [1, 7]: > 50.1 µM | INMAC pEC50 [1, 8]: inactive | solubility [4, 10]: 135 µM (≈ 55.4 µg/mL) | solubility ([4]; supplementary csv, read-out: Aqueous Solubility): 10 µM (≈ 4.1 µg/mL) | Mouse CLi ([2]; Table 5): 10 mL/min/g | IC50 ([3]; THP-1, read-out: THP1 pIC50 (converted)): > 50.1 µM | EC50 [3, 9]: > 50.1 µM

Cn1c(-c2cc(NC(=O)N3CCCC3)ccc2F)cc2cc(N3CCOCC3)cnc21 [Compound 19, N-[4-Fluoro-3-(1-methyl-5-morpholino-pyrrolo[2,3-b]pyridin-2-yl)phenyl]pyrrolidine-1-carboxamide]
IC50 [1]: > 50.1 µM | EC50 [1, 7]: > 50.1 µM | INMAC pEC50 [1, 8]: inactive | Mouse CLi ([2]; Table 5): 2.4 mL/min/g | Cli (mouse, ml/min/g) [2]: 2.4 mL/min/g | EC50 [3, 9]: > 50.1 µM | IC50 [3, 6]: > 50.1 µM

CN1CCOCC1c1cnc2nc(-c3cc(NC(=O)N4CCCC4)ccc3F)ccn12 (centres unmarked) [Compound 33, N-(4-Fluoro-3-(3-(4-methylmorpholin-3-yl)imidazo[1,2-a]pyrimidin-7-yl)phenyl)pyrrolidine-1-carboxamide]
EC50 [1, 11]: 5.01 µM | solubility at 4 h [5]: 2340 µM (≈ 994 µg/mL) | solubility ([5]; supplementary csv): > 1000 µM | Mouse CLi ([2]; Table 6): 3.8 mL/min/g | Cli (mouse, ml/min/g) [2]: 3.8 mL/min/g | EC50 [3, 12]: 50.1 µM | IC50 [3, 6]: 50.1 µM

O=C1CN(c2cnc3nc(-c4cc(NC(=O)N5CCCC5)ccc4F)ccn23)CCN1 [Compound 37, N-(4-Fluoro-3-(3-(3-oxopiperazin-1-yl)imidazo[1,2-a]pyrimidin-7-yl)phenyl)pyrrolidine-1-carboxamide]
IC50 [1]: > 50.1 µM | EC50 [1, 11]: > 50.1 µM | solubility at 4 h [5]: 815 µM (≈ 345 µg/mL) | solubility ([5]; supplementary csv): 820 µM (≈ 347 µg/mL) | Mouse CLi ([2]; Table 6): 1.1 mL/min/g | Cli (mouse, ml/min/g) [2]: 1.1 mL/min/g | EC50 [3, 12]: > 50.1 µM | IC50 [3, 6]: > 50.1 µM

N-(3-(7-Phenylimidazo[1,2-b][1,2,4]triazin-3-yl)phenyl)pyrrolidine-1-carboxamide [Compound 27]
INMAC pEC50 [1, 8]: 5.9 | LdInMac pIC50 ([1]; supplementary csv): 5.9 | solubility ([5]; Table 5): 3.0 µM | Mouse CLi ([2]; Table 5): 3.3 mL/min/g | Cli (mouse, ml/min/g) [2]: 3.3 mL/min/g | THP-1 pEC50 ([3]; Table 5): <4.3 | THP1 pIC50 ([3]; supplementary csv): <4.3
